Reference: patent publication US6953789B2, “Thiol compounds, their production and use” (Takeda Chemical Industries, Ltd., priority 1998, dated 2005)

Experiments:
[1] = molecular target: T1, recombinant human MMP-13 (Homo sapiens, UniProt P45452); assay: Assay of MMP-13 inhibiting activity (fluorogenic peptide substrate); assay type: biochemical; conditions: 37° C., 2 hours
T1 construct: made in house; host or cells: baculovirus (pBlueBac4 / Bac-N-Blue; virus made in Sf9), expressed in High-Five insect cells; culture supernatant used
Method in brief: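 Baculovirus-expressed human MMP-13 (High-Five cell supernatant) in pH 7.5 Tris buffer with 200 mM NaCl, 20 mM CaCl2, 0.1% Brij 35, 1 mM 2-mercaptoethanol; reaction started with 40 μM (stock) MOCAc-PLGL-A2pr(DNP)-AR-NH2, 2 h at 37 °C, stopped at pH 3.0. Fluorescence 330/405 nm; IC50 versus no-compound control.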

[2] = tested on: nasal cartilage; assay: Assay of cartilage collagen degradation inhibiting activity (IL-1β-stimulated nasal cartilage pieces, hydroxyproline release); assay type: cell-based, cow; conditions: 504 h; at 1 μM of compound; human recombinant IL-1β; incubation 3 weeks
Protocol: A nasal cartilage was isolated aseptically from a sacrificed cow, and preincubated in a Dulbecco's modified eagle medium containing 5% heat-inactivated fetal bovine serum, 100 units/ml of penicillin G and 100 units/ml of streptomycin at 37° C. under 5% CO2 and 95% air for 3 days. After completing the preincubation, a cartilage piece weighing about 10 mg was prepared and placed in 100 μl of a medium supplemented with a human recombinant interleukin-1β (IL-1β: *ZENZYME*) and a test compound. After incubating for 3 weeks in total during which the culture medium was replaced on the weekly basis, the total amount of hydroxyproline liberated into the culture medium and the amount of hydroxyproline remaining in the cartilage piece were determined and % collagen degradation was calculated. The collagen degradation inhibiting activity of a test compound was determined according to the following equation. Collagen degradation inhibiting activity (%)=100×(Ci−Cs)/(Ci−Cc) Equation: wherein Cc is % collagen degradation in the absence of both of IL-1β and compound, Ci is % collagen degradation in the presence of IL-1β, and Cs is a % collagen degradation in the presence of both of IL-1β and a test compound.

Structure (SMILES)	IC50 ([1]; Table 5) [nM]	inhibition at 1 µM [2] [%]	IC50 ([1]; Table 9) [nM]
O=C1C[C@@H](S)[C@H](COCc2ccccc2)N1Cc1ccc(Oc2ccccc2)cc1 (relative stereo) [Example 39, Trans-5-benzyloxymethyl-4-mercapto-1-(4-phenoxybenzyl)pyrrolidin-2-one]	9	39	
O=C1C[C@@H](S)CN1Cc1ccc(Oc2ccc(Cl)cc2)cc1 [Example 126, (R)-4-Mercapto-1-[4-(4-chlorophenoxy)benzyl]pyrrolidin-2-one]		70	1.7
